We go through six compounds from publication PMC3049581, “Development and evaluation of human AP endonuclease inhibitors in melanoma and glioma cell lines” (British Journal of Cancer, 2011).

What is called IC50 is the concentration that inhibits the measured activity by half. Read a high IC50 as weaker potency in that assay. Broadly, the inhibition is the change of the read-out against control, counted positive when it falls. For orientation: GI50 means the concentration at which growth is held to half of that of the control.

One data set concerns the target T1, Human APE1 (Homo sapiens, UniProt P27695).
T1 construct: purchased New England Biolabs
The data set is described as follows: Fluorescence-based AP site cleavage assay. Type of data set: biochemical. To be noted: APE1 50 nM, wild type. How it is done: (§1) A fluorescence-based AP site cleavage assay was performed as described previously with slight modifications ([Madhusudan et al, 2005]). Briefly, APE1 (50 nM) (New England Biolabs) was incubated in a buffer system consisting of 50 mM Tris-HCl, pH 8.0, 1 mM MgCl2, 50 mM NaCl, 2 mM DTT at 37°C for 10 min. 5′-F-GCCCCCXGGGGACGTACGATATCCCGCTCC-3′ and its complementary Q-labelled oligonucleotide (see above) were annealed in a buffer containing 100 μM Tris-HCl, 50 mM NaCl and 1 μM EDTA. AP-site cleavage was initiated by addition of the annealed substrate (25 nM) to the reaction mix. Fluorescence readings were taken at 5 min intervals during 30 min incubation at 37°C using an Envision Multilabel reader from Perkins Elmer (Cambridge, UK) with a 495 nm excitation and a 512 nm emission filter. If the DNA is cleaved at the abasic site at position 7 from the 5′-end by APE1, the 6-mer fluorescein-containing product will dissociate from its complement by thermal melting. As a result, the quenching effect of the 3′ dabcyl (which absorbs fluorescein fluorescence when in close proximity) is lost, and APE1 activity is measured indirectly as an increase in fluorescence signal (Figure 2A). Similar assays were developed for monitoring the AP endonuclease activity of endonuclease IV using a buffering system containing 10 mM HEPES-KOH, pH 7.4, 100 mM KCl and 60 ng of endonuclease IV (Trevigen, Abingdon, UK). The final DMSO concentration was maintained at 1.2% in all assays.
(§2) APE1 was incubated with the candidate inhibitors at 100 μM (final DMSO concentration, 1.2%) before initiating the AP site cleavage assay described in the previous section. […] In addition, screening of potential inhibitors for their specificity (at 100 μM concentration) was performed using endonuclease IV cleavage assays.
To estimate IC50 for APE1 inhibition, the ability of the compounds to inhibit APE1 at a range of concentrations (10 nM–100 μM) were evaluated in black 384-well plates. The reactions were set up as before and fluorescence intensity was measured every 5 min for 30 min following reaction initiation. Using the initial rate values from the assay, percent activity was calculated for each sample relative to a negative DMSO only control. The data was fitted to a sigmoidal dose-response model using Graphpad Prism 3.0 (GraphPad Software, La Jolla, CA, USA) and IC50 values were determined using the formula: % Activity=100/(1+10^(log[I]−log IC 50)).

Data set [1] has as its target T2, AP endonuclease activity of HeLa whole-cell extracts (WCE) (Homo sapiens, UniProt P27695).
T2 construct: incubated at 100 μM concentrations with 30 ng of HeLa WCE at room temperature; endogenous in cells; host or cells: HeLa whole-cell extract
Description: Whole-cell extract AP-site cleavage assay. In kind it is biochemical. The conditions noted are these: for inhibition at 100 µM: read-out: WCE Inhibition (whole-cell extracts AP site cleavage inhibition); for inhibition of AP site cleavage in WCE assay: HeLa WCE. How it is done:
The supernatant WCE was retained, the protein concentration determined using the Bio-Rad Bradford reagent, and aliquots were stored at −80°C. AP endonuclease activity assays using 18-mer radiolabelled oligonucleotide substrates (see above) were performed. In brief, all potential APE1 inhibitors were incubated at 100 μM concentrations with 30 ng of HeLa WCE at room temperature for 15 min in incision buffer consisting of 50 mM Tris-HCl, pH 8, 1 mM MgCl2, 50 mM NaCl and 2 mM DTT. After incubation, 0.5 pmol ^32P-radiolabeled THF-containing 18-mer double-stranded DNA substrate was added. […] The radiolabeled substrate and product were separated on a standard polyacrylamide-denaturing gel and quantified by phosphorimager analysis.

Data set [2] has as its system melanoma and glioma cell lines. The data set is described as follows: MTS assay, potentiation of cytotoxic agents (other inhibitors, data not shown). To be noted: relatively non-toxic inhibitor concentration. Type of data set: cell-based. As for the experimental part:
(§3) MeWo, SKMel and MM418 melanoma cancer cell line were grown in RPMI culture medium (supplemented with penicillin 0.06 g l^−1, streptomycin 0.1 g l^−1 pH 7.0, 10% foetal bovine serum (FBS, PAA Cell Culture Company, Yeovil, Somerset, UK). U89 MG and SNB-19 glioma cell lines were grown in DMEM (supplemented with penicillin 0.06 g l^−1, streptomycin 0.1 g l^−1 pH 7.0, 10% foetal bovine serum (FBS, PAA Cell Culture Company). HUVEC endothelial cells were grown in a special media (199 Media+HAMS F12), and supplemented with 20% heat-inactivated foetal calf serum, 1% Hepes, 1% Glutamine, 12.5 μg Human EGF, 625 ng of Human bFGF, 3750 units of Heparin, penicillin 0.06 g l^−1, and streptomycin 0.1 g l^−1) Only cultures with a plating efficiency of over 70% were used for analyses.
(§4) To evaluate intrinsic cytotoxicity and to evaluate the potentiation of toxicity of cytotoxic agents by APE1 inhibitors, MTS assays were performed as per the manufacturer's recommendation (Promega, Southampton, UK). Briefly, 2000 cells per well (in 200 μl of medium) were seeded into a 96-well plate. For HUVEC cells, 5 μl of 2% type 2 gelatine (Sigma) was added to the wells and the plates were preincubated for 20 min at 37°C before seeding of cells. For intrinsic cytotoxicity assessments, cells were incubated with varying concentrations of APE1 inhibitors and the MTS assay was performed on day 5. […] Non-radioactive cell proliferation assay was conducted as described previously.

For another data set, the target named is T3, E. coli endonuclease IV (Escherichia coli, UniProt P0A6C1).
T3 construct: purchased Trevigen
The data set is described as follows: Fluorescence-based endonuclease IV cleavage assay (counter-screen). Type of data set: biochemical. To be noted: tested at 100 μM. How it is done: as §1, §2
(Counterscreens check selectivity or assay interference.)

For data set [3], the system named is melanoma and glioma cell lines. Description: MTS assay, intrinsic cytotoxicity. In kind it is cell-based. To be noted: 120 h, MTS assay on day 5, read-out: GI50 (cell growth inhibition). How it is done:
as §3, §4

SMILES strings stand for the structures. “Also recorded” adds a separate entry of the source.

T2 sequence (P27695 whole entry): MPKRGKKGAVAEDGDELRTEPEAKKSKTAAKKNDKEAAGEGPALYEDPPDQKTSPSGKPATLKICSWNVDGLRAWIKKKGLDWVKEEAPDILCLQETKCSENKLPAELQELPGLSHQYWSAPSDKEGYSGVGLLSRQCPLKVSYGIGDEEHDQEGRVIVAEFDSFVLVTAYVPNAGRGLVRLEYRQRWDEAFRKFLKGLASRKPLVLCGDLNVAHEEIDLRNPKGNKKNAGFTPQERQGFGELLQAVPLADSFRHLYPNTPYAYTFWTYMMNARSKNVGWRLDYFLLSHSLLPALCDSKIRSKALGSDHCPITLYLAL
T1 sequence (P27695 whole entry): as above

Turning to `N#CC(C(=O)c1cc2ccccc2o1)c1nc2ccccc2s1` (stereo not shown) [Compound 7, 3-benzofuran-2-yl-2-benzothiazol-2-yl-3-oxo-propanenitrile], the IC50 against Human APE1 was determined as 2 µM. The inhibition at 100 µM in data set [1] (30 ng HeLa WCE) was in the range of 50 to 75%. Also, the “potentiation of cytotoxicity of alkylating agents” value (“potentiation” for short) in data set [2] is “did not show any potentiation”. Further, the “Endo IV inhibition” value at E. coli endonuclease IV is “complete inhibition and yes”; at E. coli endonuclease IV (listed as compound 7), “blocked endonuclease IV activity”. For the same compound, in data set [3], the GI50 stood at 40 µM.
For `O=C(COc1ccc2ccccc2c1)Nc1ccc(O)c(-c2nc3ccccc3o2)c1` [Compound 2, N-(3-benzooxazol-2-yl-4-hydroxy-phenyl)-2-(2-naphthyloxy)acetamide], the IC50 against Human APE1 came out at 25 µM. Further, in data set [1] (30 ng HeLa WCE), the inhibition at 100 µM was 50 to 75%. Further, in data set [2], the “potentiation” value is given as “Potentiation of cytotoxicity was also demonstrated”. For the same compound, the “Endo IV inhibition” value on E. coli endonuclease IV is reported as “None”. In addition, in data set [3], the GI50 amounted to 50 µM.
The compound `O=C(OCC(=O)N1NC(c2ccc3ccccc3c2)=CC1c1ccccc1)c1ccc([N+](=O)[O-])s1` (stereo not shown) [Compound 3, (3-(2-naphthyl)-5-phenyl-2,5-dihydropyrazol-1-yl) carbonylmethyl 5-nitrothiophene-2-carboxylate] returned an IC50 at Human APE1 of 3 µM. Moreover, the “inhibition of AP site cleavage in WCE assay” value in data set [1] (100 μM) was “no activity; also recorded: did not inhibit”; in data set [1] (100 μM, listed as compound 3, 100 µM), “no effect”. For the same compound, the “potentiation” value in data set [2] is reported as “did not shown any potentiation”. The GI50 in data set [3] was found to be 1 µM.
In turn, `O=C(O)c1cc2cc(F)ccc2[nH]1` [Compound 1, 5-fluoro-1H-indole-2-carboxylic acid] returned an IC50 at Human APE1 of 10 µM. Further, the inhibition at 100 µM in data set [1] (30 ng HeLa WCE) is less than 50%. The “potentiation” value in data set [2] is listed as “not”. Further, the “Endo IV inhibition” value on E. coli endonuclease IV is reported as “None”. The GI50 in data set [3] is greater than 300 µM.
The matching figures for `O=C(CCCn1c(SCC(=O)Nc2nccs2)nc2ccsc2c1=O)NCc1ccc2c(c1)OCO2` [Compound 5, N-(benzo(1,3)dioxol-5-ylmethyl)-4-(2-oxo-4-(thiazol-2-ylcarbamoylmethylsulfanyl)-9-thia-3,5-diazabicyclo(4.3.0)nona-4,7,10-trien-3-yl)-butanamide]: 12 µM, 50 to 75%, “Potentiation of cytotoxicity was also demonstrated”, “None” and 14 µM.
As for `O=C(CSc1nc2ccccc2s1)CSc1nc2ccccc2s1` [Compound 6, 1,3-bis(1,3-benzothiazol-2-ylthio)acetone], half-maximal inhibition at Human APE1 (IC50) required 3 µM. In addition, in data set [1] (100 μM, 30 ng HeLa WCE), the “WCE Inhibition (whole-cell extracts AP site cleavage inhibition)” value is reported as “Strong”. For the same compound, the “potentiation” value in data set [2] is given as “Potentiation of cytotoxicity was also demonstrated”. On E. coli endonuclease IV, the “Endo IV inhibition” value is on record as “None”. For the same compound, the GI50 in data set [3] turned out to be 50 µM.
